Key:
Format in all cases: in vivo
[1] = system: Italian ryegrass (Lolium multiflorum); assay: Test A preemergence, visual injury rating
Summary of the method: (§1)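 Pre- and postemergence greenhouse screen. Soil: loam + sand. Spray carrier: solvent mixture, non-phytotoxic, with surfactant. Post timing at 1–2 leaves, height 2–10 cm. Readout: visual injury on a 0–100 scale roughly 10 days after application, untreated plants as reference.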

[2] = system: barnyardgrass (Echinochloa crus-galli); assay: Test A preemergence, visual injury rating
Summary of the method: as §1

[3] = system: giant foxtail (Setaria faberii); assay: Test A preemergence, visual injury rating
Summary of the method: as §1

kochia (Kochia scoparia) [4] = assay: Test A preemergence, visual injury rating
Summary of the method: as §1

[5] = system: pigweed (Amaranthus retroflexus); assay: Test A preemergence, visual injury rating
Summary of the method: as §1

[6] = system: ragweed (common ragweed, Ambrosia elatior); assay: Test A preemergence, visual injury rating
Summary of the method: as §1

[7] = system: Italian ryegrass (Lolium multiflorum); assay: Test A postemergence, visual injury rating
Summary of the method: as §1

[8] = system: barnyardgrass (Echinochloa crus-galli); assay: Test A postemergence, visual injury rating; settings: 0 to 100 scale, 0 is no effect, 100 is complete control, approximately 10 days
Summary of the method: as §1

[9] = system: blackgrass (Alopecurus myosuroides); assay: Test A postemergence, visual injury rating
Summary of the method: as §1

corn (Zea mays) = assay: Test A postemergence, visual injury rating
Summary of the method: as §1

[10] = system: galium (catchweed bedstraw, Galium aparine); assay: Test A postemergence, visual injury rating
Summary of the method: as §1

[11] = system: giant foxtail (Setaria faberii); assay: Test A postemergence, visual injury rating
Summary of the method: as §1

kochia (Kochia scoparia) [12] = assay: Test A postemergence, visual injury rating
Summary of the method: as §1

[13] = system: pigweed (Amaranthus retroflexus); assay: Test A postemergence, visual injury rating
Summary of the method: as §1

[14] = system: ragweed (common ragweed, Ambrosia elatior); assay: Test A postemergence, visual injury rating
Summary of the method: as §1

[15] = system: wheat (Triticum aestivum); assay: Test A postemergence, visual injury rating
Summary of the method: as §1

[16] = system: barnyardgrass (Echinochloa crus-galli); assay: Test B flooded paddy test, plant response rating; settings: 250 g ai/ha; Flood; scale of 0 to 100 where 0 is no effect and 100 is complete control; 13 to 15 days
Summary of the method: (§2)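 Ratings were visual and made relative to untreated controls after 13 to 15 greenhouse days.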

[17] = system: ducksalad (Heteranthera limosa); assay: Test B flooded paddy test, plant response rating; settings: 250 g ai/ha; Flood; scale of 0 to 100 where 0 is no effect and 100 is complete control; 13 to 15 days
Summary of the method: as §2

rice (Oryza sativa) = assay: Test B flooded paddy test, plant response rating; settings: 250 g ai/ha; Flood; scale of 0 to 100 where 0 is no effect and 100 is complete control; 13 to 15 days
Summary of the method: as §2

[18] = system: sedge, umbrella (small-flower umbrella sedge, Cyperus difformis); assay: Test B flooded paddy test, plant response rating; settings: 250 g ai/ha; Flood; scale of 0 to 100 where 0 is no effect and 100 is complete control; 13 to 15 days
Summary of the method: as §2

[19] = 31 g ai/ha, 0 to 100 scale, 0 no effect, 100 complete control
[20] = 125 g ai/ha, 0 to 100 scale (0 no effect, 100 complete control)
[21] = 31 g ai/ha, 0 to 100 scale (0 no effect, 100 complete control)
[22] = 125 g ai/ha, 0 to 100 scale, 0 is no effect, 100 is complete control, approximately 10 days

| SMILES | Plant response rating, Ryegrass, Italian [1, 19] | Plant response rating, Ryegrass, Italian [1, 20] | Plant response rating, Barnyardgrass [2, 19] | Plant response rating, Barnyardgrass [2, 20] | Plant response rating, Foxtail, Giant [3, 19] | Plant response rating, Foxtail, Giant [3, 20] | Plant response rating, Kochia (kochia (Kochia scoparia) [4]; [19]) | Plant response rating, Kochia (kochia (Kochia scoparia) [4]; [20]) | Plant response rating, Pigweed [5, 19] | Plant response rating, Pigweed [5, 20] | Plant response rating, Ragweed [6, 19] | Plant response rating, Ragweed [6, 20] | Ryegrass, Italian plant response rating [7, 21] | Ryegrass, Italian plant response rating [7, 22] | Barnyardgrass plant response rating ([8]; 31 g ai/ha) | Barnyardgrass plant response rating ([8]; 125 g ai/ha) | Blackgrass plant response rating [9, 21] | Blackgrass plant response rating [9, 22] | Corn plant response rating (corn (Zea mays); [21]) | Corn plant response rating (corn (Zea mays); [22]) | other results |
| --- | --- | --- | --- | --- | --- | --- | --- | --- | --- | --- | --- | --- | --- | --- | --- | --- | --- | --- | --- | --- | --- |
| N#Cc1cccc(Oc2ncc(Cl)cn2)c1COCC(F)(F)C(F)(F)F [Compound 132] | 0 | 30 | 30 | 100 | 40 | 100 | 10 | 60 | 70 | 100 | 0 | 0 | 0 | 0 | 30 | 50 | 0 | 30 | 20 | 30 | Galium plant response rating [10, 21]: 20; Galium plant response rating [10, 22]: 60; Foxtail, Giant plant response rating [11, 21]: 30; Foxtail, Giant plant response rating [11, 22]: 50; Kochia plant response rating (kochia (Kochia scoparia) [12]; [21]): 40; Kochia plant response rating (kochia (Kochia scoparia) [12]; [22]): 70; Pigweed plant response rating [13, 21]: 60; Pigweed plant response rating [13, 22]: 90; Ragweed plant response rating [14, 21]: 0; Ragweed plant response rating [14, 22]: 0; Wheat plant response rating [15, 21]: 0; Wheat plant response rating [15, 22]: 20; Plant response rating, Barnyardgrass [16]: 45; Plant response rating, Ducksalad [17]: 90; Plant response rating, Rice (rice (Oryza sativa)): 45; Plant response rating, Sedge, Umbrella [18]: 80 |
| N#Cc1cccc(Oc2ncc(Cl)cn2)c1C(=O)CCCC(F)(F)F [Compound 133] | 0 | 0 | 0 | 30 | 0 | 90 | 0 | 10 | 70 | 100 | 0 | 0 | 0 | 0 | 10 | 30 | 0 | 0 | 0 | 20 | Galium plant response rating [10, 21]: 30; Galium plant response rating [10, 22]: 50; Foxtail, Giant plant response rating [11, 21]: 10; Foxtail, Giant plant response rating [11, 22]: 30; Kochia plant response rating (kochia (Kochia scoparia) [12]; [21]): 0; Kochia plant response rating (kochia (Kochia scoparia) [12]; [22]): 20; Pigweed plant response rating [13, 21]: 30; Pigweed plant response rating [13, 22]: 50; Ragweed plant response rating [14, 21]: 0; Ragweed plant response rating [14, 22]: 0; Wheat plant response rating [15, 21]: 0; Wheat plant response rating [15, 22]: 0; Plant response rating, Barnyardgrass [16]: 0; Plant response rating, Ducksalad [17]: 0; Plant response rating, Rice (rice (Oryza sativa)): 30; Plant response rating, Sedge, Umbrella [18]: 0 |

Source: patent US11053204B2, “Pyrimidinyloxy benzene derivatives as herbicides” (FMC Corporation, priority 2015, dated 2021)
